From a melting point compilation (Tetko et al.; mined from patent text by program, amines drawn as free bases though some values may be those of a salt)

First: CC(=O)c1ccc(NC(=O)c2ccc(C=O)cc2)cc1
Second: COc1ccc(C(=O)Nc2ccccc2)cc1NS(=O)(=O)c1ccc(C(F)(F)F)cc1
The melting point of the first is lower: 174 °C for the first, 197 to 198 °C for the second.

First: NC(=O)CCCCn1ccc([N+](=O)[O-])n1
Second: CCCCOC(=O)Nc1cccc(C(C)=O)c1
The melting point of the first is higher: 129 to 131 °C for the first, 59 to 60 °C for the second.

First: COc1ccc(-c2c(NCCc3cccc(C(F)(F)F)c3)c(=O)c2=O)cc1
Second: CCOC(=O)C(C)(C)Oc1ccc(CCc2cc(-c3ccc(C(F)(F)F)cc3)oc2C)cc1
The melting point of the first is higher: 220 to 222 °C for the first, 87 to 88 °C for the second.

Compared with `COC(=O)c1ccc(OC)c(NC(=O)C[C@H]2O[C@H](c3cccc(OC)c3OC)c3cc(Cl)ccc3N(CC(C)(C)COC(C)=O)C2=O)c1`, `COc1ccc(S(=O)(=O)Nc2cccnc2Nc2ccc(OC)c(OC)c2)cc1` is lower in melting point: 138 to 140 °C for the first, 126 to 127 °C for the second.

Compared with `CN(C)c1ccccc1CSC1=NC(=O)NC1(C)C`, `CNC(=O)C(CCO)C1(C)OCCc2c1[nH]c1ccccc21` (centres undefined) is higher in melting point: 160 to 162 °C for the first, 169 to 171 °C for the second.

Compared with `COc1ccc2cc(CCl)c(CCl)cc2c1Cl`, `COc1cc(C#N)ccc1OCCCBr` is lower in melting point: 103 °C for the first, 99 to 101 °C for the second.

First: O=C(SCCCN1C(=O)NCC1c1ccccc1)c1ccccc1 (centres undefined)
Second: O=C1CC2(CCN(Cc3ccccc3)CC2)C(=O)N1OCc1ccccc1
The melting point of the first is lower: 112 to 115 °C for the first, 146 to 152 °C for the second.

First: CC(C)NS(=O)(=O)c1cc(-c2ncnc(C(F)F)c2Cl)c(F)cc1Cl
Second: CCNc1c(SC(F)(F)F)c(C)nn1-c1c(Cl)cc(C(F)(F)F)cc1Cl
The melting point of the first is higher: 172 to 175 °C for the first, 53 to 54 °C for the second.

First: O=C(c1ccccc1)c1ccc(-c2cnn3c(O)ncnc23)cc1
Second: O=C(Nc1cc(-c2c(-c3ccc(F)cc3)nc3cccnn23)ccn1)c1ccc(Cl)nc1
The melting point of the first is higher: over 300 °C for the first, 247 to 248 °C for the second.

First: c1cc(NC2=NCCN2)ccc1Cc1cc(OC2CCCC2)cs1
Second: COc1ccc(N2CCN(c3ccc(NC4=NCC(OC)S4)cc3)CC2)cc1 (centres undefined)
The melting point of the first is lower: 142 to 143 °C for the first, 178 °C for the second.

First: CCc1nc2c(C)cc(C)nc2n1Cc1ccc(Nc2ccccc2)cc1
Second: Cc1ccc(Nc2ccnc(-n3nc(C)cc3C)n2)cc1
The melting point of the first is higher: 151 to 152 °C for the first, 52 to 55.6 °C for the second.

First: C[C@H](NC(=O)Cc1ccc(F)cc1)C(=O)N[C@@H]1C(=O)Nc2ccccc2O[C@@H]1c1ccccc1
Second: O=C(NCc1cccnc1)c1cc2ccnc(N(Cc3ccccc3)Cc3ccccc3)c2[nH]1
The melting point of the first is higher: 130 to 140 °C for the first, 105 to 108 °C for the second.

Compared with `Nc1ncc2c(n1)N(c1ccccc1)C(=O)N(c1c(Cl)cccc1Cl)C2`, `CC1=C(C(=O)N[C@H](C)c2ccccc2)[C@H](c2ccc(F)cc2Cl)N=C(c2nccs2)N1` is lower in melting point: over 300 °C for the first, 224 to 226 °C for the second.

Going from `O=C(Nc1ccc(Oc2ccccc2)cc1)c1cc([N+](=O)[O-])ccc1Cl` to `NC(=O)c1coc(-c2ccc(Oc3ccc(F)cc3)cc2)n1`, the melting point rises from 128 °C to 164 °C.

Compared with `CCCOc1ccccc1-c1nc2cc3c(cc2c(=O)[nH]1)NCN3Cc1ccc(OC)cc1`, `CCCn1ncc2c(=O)[nH]c(-c3ccccc3OCC)nc21` is higher in melting point: 130 to 131 °C for the first, 154 to 155 °C for the second.

First: CCCCCCCCCCCCCCCCS(=O)(=O)c1ccc(-n2c(=O)cc(N)n2C(=O)OCC)cc1
Second: CCCCCOc1ccc(C(=O)NCCCCCCCNC(=O)c2ccc(OCCCCC)cc2)cc1
The melting point of the first is lower: 92 °C for the first, 155 to 156 °C for the second.

Compared with `O=C(O)c1ccc(NCCOc2ccc(Cl)cc2Cl)cc1`, `O=C(O)c1ccc2cc(OCCCCCCc3cccc(O)c3O)ccc2c1` is lower in melting point: 203 to 205 °C for the first, 167 to 171 °C for the second.

First: Oc1ccccc1C=NCCN=Cc1ccccc1O
Second: O=C(/C=C/c1ccc(O)cc1)CC(=O)/C=C/c1ccccc1CO
The melting point of the first is lower: 126 °C for the first, 173 to 180 °C for the second.

First: CC(C)[C@H](N)C(c1ccccc1)c1ccccc1
Second: CC(C)(C(=O)O)c1ccc(OCc2ccccc2)cc1
The melting point of the first is lower: 71 to 72 °C for the first, 128 to 130 °C for the second.

First: C=C(C)C(=O)NCCC#N
Second: COc1cccc(Cn2cc3c(-c4cccc(C(=O)NCCC#N)c4)cccc3n2)n1
The melting point of the first is lower: 46 to 48 °C for the first, 145 to 146 °C for the second.

First: O=C1c2cc(O)ccc2OCC1Cc1ccccc1 (centres undefined)
Second: O=C(O)Cc1ccc2c(c1)Cc1ccccc1CO2
The melting point of the first is lower: 140 to 143 °C for the first, 155 to 157 °C for the second.

First: CCC1CC2C3CCC4=CC(=O)CCC4C3CCC2(C)C1OC(=O)CBr (centres undefined)
Second: Cc1nnc(C(C)C)n1C1CC2CCC(C1)N2CCC(NC(=O)C1CCC(F)(F)CC1)c1ccc(N)cc1 (centres undefined)
The melting point of the first is higher: 118 to 120 °C for the first, 103 to 105 °C for the second.

`CC(C)CC(CP(=O)(O)CNC(=O)c1ccccc1)C(=O)N(c1ccc(-c2ccccc2)cc1)[C@@H](C)C(=O)O` (some centres undefined) and `CCCCN(Cc1ccc(-c2ccccc2S(=O)(=O)NC(=O)OC(C)(C)C)cc1)C(=O)N1CCCc2ccccc21` cannot be ordered by melting point: 148 to 150 °C for the first, over 67 °C for the second.

First: COC(=O)C(C)(SC)c1ccc(N2C(=O)c3ccccc3C2=O)c(Cl)c1 (centres undefined)
Second: COc1ccc2c(c1)c(C(C)C(=O)O)cc(=O)n2Cc1ccccc1Cl (centres undefined)
The melting point of the first is lower: 141 to 142 °C for the first, 187 to 188 °C for the second.

First: Nc1nc2c(ncn2COCCOC(=O)c2ccccc2)c(=O)[nH]1
Second: Cc1[nH]c(-c2ccccc2)c2nc[nH]c(=O)c12
The melting point of the first is lower: 222 to 226 °C for the first, 295 to 296 °C for the second.

First: C=CCC(=O)c1cnn(-c2ccccn2)c1S(N)(=O)=O
Second: CCOc1ccnc2c1c(C(C)=O)cn2S(=O)(=O)c1ccccc1
The melting point of the first is lower: 140 to 142 °C for the first, 151 to 153 °C for the second.

First: CNC(=O)C(Cc1ccc(OC)cc1)NC(=O)C(CC(C)C)C(CC(=O)NCC(N)=O)SC(C)=O (centres undefined)
Second: CNc1ccc(C(=O)OC)c(S(=O)(=O)NC(C)(C)C)c1
The melting point of the first is higher: 218 to 219 °C for the first, 120 to 124 °C for the second.

Compared with `O=C(O)CN1C(=O)C(=Cc2ccc([N+](=O)[O-])o2)SC1=S`, `CC1=NOC(c2c(S(C)(=O)=O)ccc(C(=O)O)c2Cl)C1` (centres undefined) is lower in melting point: 238 to 242 °C for the first, 175 °C for the second.

First: CC(C)c1c(O)ccc2c1oc1ccc(C#N)cc12
Second: Brc1ccc(-c2cc3c(ccc4ccccc43)o2)cc1
The melting point of the first is higher: 180 to 182 °C for the first, 154 to 155 °C for the second.

First: COc1cc(C(=O)O)cc2c1C(=O)c1ccccc1CC2
Second: O=C(O)c1ccccc1Oc1ccc(C(F)(F)F)cc1NS(=O)(=O)c1ccc(Br)cc1
The melting point of the first is higher: 222 to 227 °C for the first, 167 to 168 °C for the second.

First: COc1cc(C(=O)N2Cc3ccc(C(=O)NCc4c(CO)cnc(C)c4O)n3Cc3ccccc32)ccc1-c1ccccc1C
Second: COc1cc(C(=O)N2CCC(CCN3CCC(C(=O)c4nc5ccccc5n4Cc4ccccn4)CC3)(c3ccccc3)C2)cc(OC)c1OC (centres undefined)
The melting point of the first is higher: 179 °C for the first, 84 to 89 °C for the second.

Compared with `CCOC(=O)c1cc2c(O)nncc2nc1NC(C)C`, `CCCn1nc(C)c2nc(C)nc(O)c21` is lower in melting point: 219 to 220 °C for the first, 196 to 198 °C for the second.

Compared with `COc1cc2c(cc1O)CC(C)N(Cc1cc(OC)c(OC)c(OC)c1)C2` (centres undefined), `COc1ccc(CCNC(=S)N2CCN(c3ncnc4cc(OC)c(OC)cc34)CC2)cc1OC` is lower in melting point: 127 to 132 °C for the first, 98 to 100 °C for the second.

Compared with `Cc1c(SCCN)ccnc1CSc1nc2ccccc2[nH]1`, `Cc1cccc(C(=O)c2[nH]c3cc(Cl)ccc3c2N)c1` is lower in melting point: 158 to 160 °C for the first, 80 to 88 °C for the second.

Compared with `O=C(O)C1(c2ccc(Nc3nc(N4CCOCC4)nc4c3CCC4)cc2)CCC1`, `NC(=O)c1c(N)n(C2CCCC2)c2nc(Nc3ccc(N4CCOCC4)cc3)ncc2c1=O` is lower in melting point: 279 to 281 °C for the first, 265 °C for the second.

First: Cc1cccc(CCc2c(C(C)C)nc(C(C)C)c(CO)c2-c2ccc(F)cc2)c1
Second: CCCCc1nc(C(F)(F)F)c(CO)n1Cc1ccc(-c2ccccc2C#N)cc1
The melting point of the first is higher: 148 to 150 °C for the first, 136 to 138 °C for the second.

First: CC(C)(C)C(O)(COc1ccc(F)cc1)C(F)n1cncn1 (centres undefined)
Second: Clc1ccc(-c2nc(COc3ccc(CCCn4ccnc4)cc3)co2)o1
The melting point of the first is higher: 89 to 90 °C for the first, 88 to 89 °C for the second.

Compared with `CCn1c2c(c(=O)c3cc(C(C)C)ccc31)Cc1cc(C)sc1-2`, `CC(=O)NS(=O)(=O)c1ccc(-n2cc(C)cc2-c2ccc(C)c(C)c2)cc1` is higher in melting point: 168 to 169 °C for the first, 192 to 193 °C for the second.

Compared with `CCCCNC(=O)Oc1ccc2c(N3CCN(CCCC(=O)c4ccc(F)cc4)CC3)noc2c1`, `Cn1c(COc2ccc(CC3SC(=O)NC3=O)cc2)nc2ccc(Oc3ccc(NC(=O)Nc4cccc5ccccc45)cc3)cc21` (centres undefined) is higher in melting point: 137 to 141 °C for the first, 211 to 214 °C for the second.

First: CC1NC(c2ccc(Cl)cc2)=NO1 (centres undefined)
Second: OC(CSc1ccc(Cl)cc1)Cn1ccnc1 (centres undefined)
The melting point of the first is higher: 110 to 112 °C for the first, 108 to 109 °C for the second.

First: Cc1ncsc1C(O)c1ccoc1 (centres undefined)
Second: c1cc(OC[C@H]2CO2)c2cccnc2c1
The melting point of the first is lower: 44 to 46 °C for the first, 79 to 81 °C for the second.

Compared with `Fc1cccc(C2=NOCCS2)c1`, `Cn1nnnc1NCC(O)COc1cccc(CN2CCCCC2)c1` (centres undefined) is higher in melting point: 47 to 49 °C for the first, 156 to 157 °C for the second.

Compared with `Nc1ccccc1COc1ccn(-c2ccc(Cl)cc2)n1`, `O=c1c(I)c(OCc2ccc(F)cc2F)ccn1Cc1cccc(F)c1` is higher in melting point: 81 to 83 °C for the first, 164 to 167 °C for the second.

First: COc1cccc2c1S(=O)(=O)c1ccccc1C2(CCOS(C)(=O)=O)CCOS(C)(=O)=O
Second: Cc1c(Cl)cccc1NS(=O)(=O)c1cc(S(=O)(=O)Nc2cccc(Cl)c2C)c2ccccc2c1O
The melting point of the first is lower: 200 to 202 °C for the first, 245 to 247 °C for the second.

First: Cc1ccc(-c2nnc(N3CCOCC3)nc2-c2ccc(C)cc2)cc1
Second: CC(=O)c1c(-c2ccncc2)sc(-c2ccncc2)c1C
The melting point of the first is higher: 190 to 192 °C for the first, 137 to 138 °C for the second.

Compared with `CN(C(N)=O)C1CCCc2ccccc21` (centres undefined), `O=S(=O)(c1ccccc1)n1ccc2c(CO)cccc21` is lower in melting point: 160 to 163 °C for the first, 89 to 91 °C for the second.

Compared with `NC(=O)c1sc2nc(N3CCC(NCC(O)c4cccc5c4OCO5)CC3)cc(C(F)(F)F)c2c1N` (centres undefined), `CCOc1cc(-c2cc(C(F)(F)F)n3ncc(C(=O)Nc4cc(S(N)(=O)=O)sc4Cl)c3n2)ccc1C(F)(F)F` is higher in melting point: 221 to 223 °C for the first, 281 °C for the second.

First: CCN1CCCC1CNC(=O)c1nc(Cl)c(OC)nc1OC (centres undefined)
Second: CCOC(=O)C1=C(N)N=C(SCC)C(C(=O)OCC)C1c1cccc(C#N)c1 (centres undefined)
The melting point of the first is lower: 100 to 101 °C for the first, 153 °C for the second.

First: CCC1(CO)COCOC1
Second: N#CCc1cnn2ccc3c(c12)CCO3
The melting point of the first is lower: 95 to 102 °C for the first, 165 to 166 °C for the second.

For `N#Cc1cc2c3c(cccc3c1N1CCCCC1)C(=O)N(O)C2=O`, the melting point was over 250 °C.
